Data from PubChem BioAssay (NCI).
Values joined by “and” are separate entries in the source; they are usually repeats but may differ in a detail not shown here. Equal entries are not always repeated.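 Grown in 96-well plates, cells were treated for 48 hours with each compound at five concentrations. Insufficient inhibition: endpoint recorded as highest concentration tested. At the GI50, growth is halved. The concentration for full growth arrest is given as TGI.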 Where a SMILES comes first, the peptide text is derived from it. The star is where a group is joined. Boc = CC(C)(C)OC(=O)*; nBu = CCCC*

Columns and labels:
Assay in all cases: inhibition of tumour cell growth, NCI panel, 48 h
HL-60(TB) leukemia = system: HL-60(TB) leukemia
MOLT-4 leukemia = system: MOLT-4 leukemia
NCI/ADR-RES ovarian = system: NCI/ADR-RES ovarian
MDA-MB-231 breast = system: MDA-MB-231 breast
PC-3 prostate = system: PC-3 prostate
NCI-H460 lung = system: NCI-H460 lung
MCF7 breast = system: MCF7 breast
COLO 205 colon = system: COLO 205 colon
HT29 colon = system: HT29 colon
A498 renal = system: A498 renal

| SMILES | TGI (HL-60(TB) leukemia) | TGI (MOLT-4 leukemia) [µM] | TGI (NCI/ADR-RES ovarian) [µM] | TGI (MDA-MB-231 breast) [µM] | TGI (PC-3 prostate) [µM] | TGI (NCI-H460 lung) | TGI (MCF7 breast) [µM] | TGI (COLO 205 colon) | TGI (HT29 colon) | TGI (A498 renal) | GI50 (HL-60(TB) leukemia) | GI50 (MOLT-4 leukemia) | GI50 (NCI-H460 lung) | GI50 (A498 renal) | GI50 (MDA-MB-231 breast) [µM] | GI50 (PC-3 prostate) [µM] | GI50 (MCF7 breast) [µM] | GI50 (COLO 205 colon) [µM] | GI50 (HT29 colon) [µM] |
| --- | --- | --- | --- | --- | --- | --- | --- | --- | --- | --- | --- | --- | --- | --- | --- | --- | --- | --- | --- |
| O=C(O)c1cc2ccccc2c(N=Nc2ccc(S(=O)(=O)Nc3ncccn3)cc2)c1O | > 100 µM | > 100 | > 100 | > 100 | > 100 | > 100 µM | > 100 | > 100 µM | > 100 µM |  |  |  |  |  |  |  |  |  |  |
| C#C[C@]1(O)CC[C@H]2[C@@H]3CCc4cc(O)ccc4[C@H]3CC[C@@]21C | 94 µM | > 100 |  |  |  | 82.5 µM |  | 92.7 µM | 54.4 µM | 77.4 µM |  |  |  |  |  |  |  |  |  |
| CCOc1nc2c(N3CCCC3)nc(N3CCNCC3)nc2nc1NCc1ccccc1 | 2.99 µM | 2.8 | 8.6 | 2.84 | 3.63 | 2.91 µM | 2.86 | 1.93 µM | 2.6 µM |  |  |  |  |  |  |  |  |  |  |
| C/C(C=O)=C/[C@@]1(C)O[C@@H](C)[C@@](C)(O)[C@@H]1O | > 100 µM | 25.7 | 56.1 | > 100 | > 100 | 64 µM | > 100 | > 100 µM | > 100 µM | > 100 µM |  |  |  |  |  |  |  |  |  |
| CN1CCC(C(O)(c2ccccc2)c2ccc(Br)cc2)CC1 (stereo not drawn) | 66.5 µM | 61.3 | > 100 | 48.8 | > 100 | 62.5 µM | 64.2 | 28.7 µM | 51.9 µM |  |  |  |  |  |  |  |  |  |  |
| N#C/C(=C(/O)CCl)c1nc2ccccc2o1 | 7.04 µM | 10.3 | 5.4 | 9.41 | 22.8 | 14.3 µM | 8.59 | 3.45 µM | 22.5 µM | 4.4 µM |  |  |  |  |  |  |  |  |  |
| COc1ccc2nc3cc(Cl)ccc3c(NCCCN3CCN(CCCNc4ccc5nnn6c7ccccc7c(=O)c4c56)CC3)c2c1 | > 18.7 µM | > 25 | > 25 | > 18.2 | > 25 | > 25 µM | 7.11 | > 25 µM | > 25 µM | > 25 µM |  |  |  |  |  |  |  |  |  |
| Nc1nc(SCC(=O)c2ccc(Br)cc2)c2[nH]cnc2n1 | 63.1 µM |  | 93.6 | > 100 | > 100 | > 100 µM | > 100 | 46.8 µM | > 100 µM | > 100 µM |  |  |  |  |  |  |  |  |  |
| COc1ccc(CCn2cncn2)cc1 | > 100 µM | > 100 |  |  |  | > 100 µM |  | > 100 µM | > 100 µM |  |  |  |  |  |  |  |  |  |  |
| CCCCCCCCCCCCCCCc1nc(=S)[nH][nH]1 | > 100 µM | > 100 |  |  |  | > 100 µM |  |  | > 100 µM | > 100 µM |  |  |  |  |  |  |  |  |  |
| CCCCOc1ccc(CC(NC(=O)OC(C)(C)C)C(=O)NC(C)C(=O)NC(Cc2ccccc2)C(=O)NCC(N)=O)cc1 (stereo not drawn) (Boc-Y(nBu)AFG-NH2; configuration not given here) | > 100 µM | 53.3 | > 100 | > 100 | > 100 | > 100 µM | > 100 | > 100 µM | > 100 µM | > 100 µM |  |  |  |  |  |  |  |  |  |
| CC1(C)OC[C@@H]([C@@]2(COC(c3ccccc3)(c3ccccc3)c3ccccc3)CC=CC(=O)O2)O1 | 81.2 µM | 98.2 |  | > 100 | > 100 | > 100 µM | 54.6 | 50.6 µM | > 100 µM | 71.4 µM |  |  |  |  |  |  |  |  |  |
| COc1cc(C2S/C(=C/c3ccccc3)C(=O)N2c2cccc(NC(C)=O)c2)cc(OC)c1OC (stereo not drawn) |  | > 100 | > 100 | 50.7 | 48.9 |  | > 100 | 86.6 µM | 59.7 µM | 93.7 µM |  |  |  |  |  |  |  |  |  |
| O=[N+]([O-])c1ccc(N=Nc2c(O)[nH]c3ccccc23)c([N+](=O)[O-])c1 | > 100 µM | > 100 | 59.9 | 29.9 | > 100 | 37.4 µM | 80.7 | 71.2 µM | 81.7 µM | 79.4 µM |  |  |  |  |  |  |  |  |  |
| COC(=O)c1c(O)ccc2c1c1c(n2Cc2cc(OC)cc(OC)c2)C(=O)c2ccccc2C1=O | 39.4 µM | 73.3 | 21.8 | 35.7 | 19.3 | 19 µM | 45.3 | 3.28 µM | 5.42 µM | > 100 µM |  |  |  |  |  |  |  |  |  |
| CC(=O)c1ccc(Nc2c3ccccc3nc3occc23)cc1 | < 0.01 µM | 32.2 |  | 0.541 | > 100 | 0.453 µM | < 0.128 | 0.136 µM | 0.402 µM | 12.6 µM |  |  |  |  |  |  |  |  |  |
| O=c1c2cc(O)ccc2n2nnc3ccc(NCCNCCO)c1c32 | > 42.2 µM and 13.1 µM |  |  |  |  | > 57.4 µM and 23.6 µM |  | 50.9 µM and 21.7 µM | > 66.3 µM and 29.1 µM | > 87.4 µM and 16.7 µM | 6.46 µM and 1.88 µM | 1.83 µM and 0.205 µM | 28.9 µM and 4.01 µM | 25.1 µM and 6.77 µM |  |  |  |  |  |
| CN(CCc1ccccn1)c1ccc2c(c1)C(=O)c1ccccc1-2 |  |  | > 100 | > 100 | > 100 | > 100 µM | > 100 | > 100 µM | > 100 µM | > 100 µM |  |  |  |  |  |  |  |  |  |
| CN(C)c1ccc(-c2ccc(-c3ccc(C(=N)N)cn3)o2)cc1 | 3.73 µM |  |  | 3.77 | 2.93 | 3.05 µM | 3.52 | 2.28 µM | 1.74 µM |  | 1.76 µM |  | 1.35 µM |  | 1.8 | 1.5 | 1.61 | 1.04 | 0.479 |
| COc1ccc(C2C3CCc4ccccc4C3=NN2S(=O)(=O)c2cccc(C(=O)O)c2OC)cc1 (stereo not drawn) | > 100 µM | > 100 | 11.7 | > 100 | > 100 | > 100 µM | 6.55 | 5.6 µM | > 100 µM |  |  |  |  |  |  |  |  |  |  |
